Test results as given in patent publication EP4595976A1, “COMPOSITION FOR TREATING CANCER CONTAINING HISTONE DEACETYLASE INHIBITOR, AND ANTICANCER ADJUVANT FOR CANCER IMMUNOTHERAPY” (Samsung Life Public Welfare Foundation, priority 2022, dated 2024).

How the values were obtained:
CT26 [1] = assay: IC50 concentration at which 50% of cells are dead, inhibitor treatment for 48 hours; assay type: cell-based; details: Mus musculus; Table 4; CT26, MSS (48hr); read-out: IC50(mean±SD)
Method: (§1) The IC50 concentration, which is the concentration at which 50% of cells are dead, was obtained by treating each cell line with an inhibitor at different concentrations for 48 hours and then determining the concentrations at which 50% of the cells were dead. Especially, the results obtained by treating various MSS cell lines (SW620, LS513, HT29, and CT26) with HDAC6i are shown in Table 4 below.

DLD-1 = assay: as above; assay type: cell-based; details: Homo sapiens, Table 3, DLD-1 (MSI), read-out: IC50(mean±SD)
Method: as §1

HT29 = assay: as above; assay type: cell-based; details: Homo sapiens, HT-29; Table 4; HT29, MSS (48hr); read-out: IC50(mean±SD)
Method: as §1

LS513 = assay: as above; assay type: cell-based; details: Homo sapiens, LS-513, Table 3, LS513 (MSS), read-out: IC50(mean±SD)
Method: as §1

SW620 = assay: as above; assay type: cell-based; details: Homo sapiens, SW-620, Table 3, SW620 (MSS), read-out: IC50(mean±SD)
Method: as §1

PD-L1 = PD-L1 expression (real-time PCR, western blot) in colorectal cell lines 48 hours after HDAC inhibitor treatment; assay type: cell-based; details: for PD-L1 expression at the RNA and protein levels: depending on the concentration; for PD-L1 expression: IC50 and 1/2 IC50, 48 hours, FIG. 2
Method: The HDAC3 inhibitor experiment was conducted by harvesting cells 48 hours after the treatment at each inhibitor concentration and obtaining RNA and proteins. RGFP966 (S7229) purchased from SellekChem was used as an HDAC3 inhibitor. Specifically, SW620, LS513, DLD-1, CT26, and MC38 were individually cultured, and the experiments were conducted using the IC50 and 1/2 IC50 concentration on the basis of the previously determined IC50 concentration. RNA and protein samples were collected 48 hours after RGFP966 treatment. The RNA samples were isolated using the TRIzol, isopropanol, and chloroform, and the protein samples were collected by lysis with a lysis buffer (Roche, 4719956001). RNA was synthesized into cDNA using a cDNA synthesis kit (Bioneer, K-2044-B), and real-time PCR was performed using a method according to SYBR (Applied Biosystems, 4367659). Proteins were quantified using the Bradford assay (Bio-Rad, 50000006), and subjected to loading, transfer, blocking (3% skim milk; BD, 232100), primary antibody (24 h, 4°C), and secondary antibody sequentially, thereby developing PD-L1.
The HDAC6 inhibitor experiment was conducted by the same method as in the HDAC3 inhibitor experiment of Experimental Example 3, and Nexturastat A HDAC6 selective inhibitor purchased from SellekChem was used as an HDAC6 inhibitor.
The HDAC8 inhibitor experiment was conducted by the same method as in the HDAC3 inhibitor experiment of Experimental Example 3, and PCI-34051 HDAC8 selective inhibitor purchased from SellekChem was used as an HDAC8 inhibitor.
The HDAC6 and HDAC8 inhibitor experiment was conducted by harvesting cells 48 hours after the treatment and then obtaining RNA and proteins.

CT26 [2] = assay: Animal experiment using HDAC6 inhibitor with or without anti-PD-L1 antibody, CT26 tumors; assay type: in vivo; details: during treatment with HDAC6 inhibitor; FIG. 9D
Method: The animal experiment using an HDAC6 inhibitor was conducted using a total of three groups, a control group (control), an HDAC6i (Next A) group, and an HDAC6i (Next A)+anti-PD-L1 group. Nexturastat A (SellekChem) was used as HDAC6i (HDAC6 inhibitor), and #BE0101(Bioxcell) was used as an anti-PD-L1 antibody. CT26 (1x10^6) cells and BALB/C mice were used. Three mice for the control group, three mice for the HDAC6i group, and four mice for the HDAC6i+anti-PD-L1 group were used.
• HDAC6i group: HDAC6i 20 mpk(mg/kg) intraperitoneally injected daily • HDAC6i+anti-PD-L1 group: HDAC6i 20 mpk intra peritoneally injected every day and anti-PD-L1 antibody 10 mpk intra peritoneally injected three times per week.
In addition, paraffin blocks of tumor tissues were prepared for histological staining, and subjected to H&E and TUNEL assay in order to investigate cell death. […]
Additionally, the expression of related genes was examined by real-time PCR after the isolation of RNA form tumors. In the animal experiment according to an example of the present invention, the mRNA changes of PD-L1, TNF-a and IFN-γ (pro-inflammatory cytokines), IL-6 (anti-inflammatory cytokine), and IRF-1 (target gene for JAK2/STAT1 signaling) were measured, and the results are shown in FIG. 11.

PD-L1 and B7H3 = PD-L1 and B7H3 expression after HDAC6 inhibitor treatment in MSI and MSS colorectal cancer cell lines; assay type: cell-based; details: IC50 and half-IC50 concentrations; MSS cell line compared with MSI cell line; FIG. 15
Method: The IC50 values of the HDAC6 inhibitor (Nexturastat A) in three MSI colorectal cancer cell lines (DLD-1, HCT116, and MC38) and three MSS colorectal cancer cell lines (SW620, HT29, and CT26) were determined. The cells were then treated with the inhibitor at the IC50 and half-IC50 concentrations (concentration corresponding to 1/2 of the IC50 value), and the expression levels of the immune checkpoint proteins PD-L1 and B7H3 were measured.

Row | SMILES | IC50 (CT26 [1]) | IC50 (DLD-1) | IC50 (HT29) | IC50 (LS513) | IC50 (SW620) | PD-L1 expression at the RNA and protein levels (PD-L1; MSS cell lines (SW620, LS513, HT29, and CT26), FIG. 4) | body weight of the mice (CT26 [2]) | B7H3 expression (PD-L1 and B7H3) | PD-L1 expression (PD-L1 and B7H3) | PD-L1 expression at the RNA and protein levels (PD-L1; MSS cell lines (SW620, LS513, and CT26), FIG. 6) | PD-L1 expression (PD-L1; MSS cell lines (SW620, LS513, and CT26), compared with HDAC6 and HDAC8) | PD-L1 expression (PD-L1; mouse cells)
1 | CCCCN(Cc1ccc(C(=O)NO)cc1)C(=O)Nc1ccccc1 [Nexturastat A] | 27.1 µM | 10.8 µM | 11.3 µM | 26.9 µM | 6.8 µM | increase | not reduced | distinct increase tendencies | distinct increase tendencies | – | – | –
2 | COc1ccc(Cn2ccc3ccc(C(=O)NO)cc32)cc1 [PCI-34051] | – | 6.36 µM | – | 19.6 µM | 31.8 µM | – | – | – | – | increase | – | –
3 | Nc1cc(F)ccc1NC(=O)/C=C/c1cnn(C/C=C/c2ccccc2)c1 [RGFP966] | – | 119 µM | – | 43.1 µM | 23.8 µM | – | – | – | – | – | small increases | decrease tendency
